Here are results for one compound from patent publication US8278469B2, “17-hydroxy-17-pentafluoroethyl-estra-4,9(10)-dien-11-aryl derivatives, method of production thereof and use thereof for the treatment of diseases” (Bayer Pharma Aktiengesellschaft, priority 2009, dated 2012).

One data set deals with rodents and non-rodents. The conditions noted are these: in vivo.
Data set [1] can be described thus: Permeation in Caco-2 cells. In kind it is in vitro ADME. As to conditions: human, Caco-2, 2 μM, 37° C., apical to basolateral. On the procedure:
Permeation of (11β,17β)-17-hydroxy-11-[4-(methylsulphonyl)phenyl]-17-(pentafluoroethyl)estra-4,9-dien-3-one in Caco-2 Cells
For the permeation studies, Caco-2 cells with a cell count of 300000 cells/ml were cultivated on Transwell Clear filter inserts (polyester; pore size 0.4 μm) in 12-well cell culture plates for at least 14 days in cell culture medium (1.5 ml) at 37° C., 5% CO2 and 95% air humidity. Before the test, to verify the “compactness” of the cell monolayer, the transepithelial resistance (TEER value) was determined, which must be greater than 300 Ωcm^2. Then the cell culture medium was replaced with hot transport buffer (0.5 ml apical, 1.5 ml basolateral) and the cells were equilibrated in it for 5 min. The permeability test was performed in duplicate at a substance concentration of 2 μM. At the start of the experiment, 100 μl (Ap0 min) was taken from the apical compartment and 100 μl of ice-cold stopping solution was added to it immediately. […] After further dilution of the samples with 4 times the volume of stopping solution/transport buffer (1+1) they were sedimented overnight at −20° C. and the supernatant was analysed by LCMS/MS. The Papp value of the substances was calculated from the following formula. […]

Data set [2] concerns the target T1, human progesterone receptor B (PR-B) (Homo sapiens, UniProt P06401).
T1 construct: expressed in transfected cells; host or cells: SK-N-MC human neuroblastoma cells, stably transfected with pRChPR-B-neo and pMMTV-LUC
T1 sequence (P06401 1-933): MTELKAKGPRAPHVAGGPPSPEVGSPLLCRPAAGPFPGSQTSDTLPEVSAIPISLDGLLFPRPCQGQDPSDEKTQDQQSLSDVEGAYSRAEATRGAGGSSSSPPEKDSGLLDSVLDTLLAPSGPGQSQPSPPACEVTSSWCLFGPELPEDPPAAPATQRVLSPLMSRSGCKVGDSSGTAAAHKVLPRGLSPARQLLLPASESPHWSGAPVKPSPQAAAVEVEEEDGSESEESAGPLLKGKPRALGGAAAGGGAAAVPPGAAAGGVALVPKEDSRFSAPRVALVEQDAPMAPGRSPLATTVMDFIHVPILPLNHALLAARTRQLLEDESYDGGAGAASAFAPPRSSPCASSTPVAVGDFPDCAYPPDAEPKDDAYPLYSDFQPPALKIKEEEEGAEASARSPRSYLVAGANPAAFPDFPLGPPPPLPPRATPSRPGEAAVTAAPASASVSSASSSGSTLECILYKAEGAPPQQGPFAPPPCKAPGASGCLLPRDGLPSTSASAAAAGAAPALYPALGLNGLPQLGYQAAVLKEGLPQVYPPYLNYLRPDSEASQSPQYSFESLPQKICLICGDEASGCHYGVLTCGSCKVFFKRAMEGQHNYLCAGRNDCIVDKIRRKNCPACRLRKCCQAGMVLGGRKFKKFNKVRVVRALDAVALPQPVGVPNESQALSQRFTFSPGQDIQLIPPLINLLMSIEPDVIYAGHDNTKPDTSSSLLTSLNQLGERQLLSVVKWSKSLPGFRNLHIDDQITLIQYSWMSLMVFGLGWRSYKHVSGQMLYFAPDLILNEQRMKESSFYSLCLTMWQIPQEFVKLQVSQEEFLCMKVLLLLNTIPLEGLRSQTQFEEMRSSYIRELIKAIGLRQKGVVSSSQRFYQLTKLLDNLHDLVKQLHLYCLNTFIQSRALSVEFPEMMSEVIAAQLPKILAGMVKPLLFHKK
Briefly: Progesterone receptor-antagonistic action in stable transfectants of SK-N-MC cells with human PR-B and MTV-LUC reporter. Type of data set: cell-based. As to conditions: SK-N-MC, 24 h, read-out: Progesterone receptor B (PR-B) Efficacy. The procedure:
Progesterone Receptor-Antagonistic Action in Stable Transfectants of Human Neuroblastoma Cells (SK-N-MC Cells) with the Human Progesterone A or Progesterone B Receptor and an MTV-LUC Reporter Construct
SK-N-MC cells (human neuroblastoma cells), which have been stably transfected with plasmids, which express the human progesterone receptor B (pRChPR-B-neo) or the human progesterone receptor A (pRChPR-A-neo) and a reporter construct (pMMTV-LUC), were incubated for 24 hours either in the absence (negative control) or in the presence of increasing amounts of the respective test compound (0.01 nmol/l, 0.1 nmol/l, 1 nmol/l, 10 nmol/l, 100 nmol/l and 1 μmol/l), in order to determine the agonistic efficacy. As positive control of reporter gene induction, the cells were treated with the synthetic gestagen promegestone (0.01 nmol/l, 0.1 nmol/l, 1 nmol/l, 10 nmol/l, 100 nmol/l and 1 μmol/l). For determination of the antagonistic activity, the cells were treated with 0.1 nmol/l promegestone and additionally with increasing amounts of the respective test compound (0.01 nmol/l, 0.1 nmol/l, 1 nmol/l, 10 nmol/l, 100 nmol/l and 1 μmol/l). The activity of the LUC reporter gene (LUC=luciferase) was determined in the cell lysates and was measured as RLU (relative light units). All measured values are given as percentage efficacy and as EC50 or IC50 concentrations.
11β-(4-Acetylphenyl)-20,20,21,21,21-pentafluoro-17-hydroxy-19-nor-17α-pregna-4,9-dien-3-one and 20,20,21,21,21-pentafluoro-17-hydroxy-11β-[4-(hydroxyacetyl)phenyl]-19-nor-17α-pregna-4,9-dien-3-one, very potent and therefore preferred examples from WO98/34947 and WO2008/058767, were tested as comparative compounds along with the test compound.

As for `C[C@]12C[C@H](c3ccc(S(C)(=O)=O)cc3)C3=C4CCC(=O)C=C4CC[C@H]3[C@@H]1CC[C@@]2(O)C(F)(F)C(F)(F)F` [Example 4, (11β,17β)-17-Hydroxy-11-[4-(methylsulphonyl)phenyl]-17-(pentafluoroethyl)estra-4,9-dien-3-one], in the data set with rodents and non-rodents, the “Safety profile (in acute and chronic tests)” value was “especially favourable safety profile”. The same compound gave a Papp A→B at 90 min, 2 μM in data set [1] of 10.4 ×10⁻⁶ cm/s. In addition, in data set [2], the Emax came out at 100%.
